Results reported in ChEMBL document CHEMBL1149373, “Computer-aided design of non-nucleoside inhibitors of HIV-1 reverse transcriptase” (Bioorg Med Chem Lett, 2006).

What was measured:
[1] = system: MT2; assay: Cytotoxicity against MT2 cells; type: functional; conditions: Homo sapiens
[2] = system: Human immunodeficiency virus 1; assay: Antiviral activity against wild-type HIV1 in MT2 cells by MTT assay; type: functional, organism-based
[3] = Human immunodeficiency virus 1, MT2, read-out: EC50

Structure (SMILES)	CC50 [1]	EC50 [2]	EC50 [2, 3]
CC(C)=CCOc1cc(Nc2ccccn2)ccc1C#N	0.29 µM	Not Active	
CC(C)=CCOc1cc(Nc2nccc(N)n2)ccc1Cl	0.5 µM		
CC(C)=CCOc1cc(Nc2ncccn2)ccc1C#N	< 0.2 µM	Not Active	
CCc1ccc(Nc2nccs2)cc1OCC=C(C)C	31 µM		5 µM
CC(C)=CCOc1cc(Nc2nccs2)ccc1C	17 µM		3 µM
CC(C)=CCOc1cc(Nc2nccc(C(F)(F)F)n2)ccc1Cl	2.5 µM		0.065 µM
CCCc1ccc(Nc2nccs2)cc1OCC=C(C)C	23 µM		23 µM
CC(C)=CCOc1cc(Nc2ccccn2)ccc1C	35 µM	Not Active	
CC(C)=CCOc1cc(Nc2nccs2)ccc1C(C)C	31 µM	Not Active	
CC(C)=CCOc1cc(Nc2ncccn2)ccc1Cl	2.5 µM		
CC(C)=CCOc1cccc(Nc2ncccn2)c1	> 100 µM		30 µM
CC(C)=CCOc1cc(Nc2ncccn2)ccc1C	78 µM		2.8 µM
CC(C)=CCOc1cc(Nc2nccs2)ccc1Cl	26 µM		0.3 µM
CC(C)=CCOc1cc(Nc2nccc(C)n2)ccc1Cl	< 0.2 µM	Not Active	
CC(C)=CCOc1cccc(Nc2nccs2)c1	23 µM		10 µM
COc1ccc(Nc2nccs2)cc1OCC=C(C)C	42 µM		3.8 µM
COc1ccnc(Nc2ccc(Cl)c(OCC=C(C)C)c2)n1	9 µM		
CC(C)=CCOc1cc(Nc2nccs2)ccc1C#N	0.5 µM		0.21 µM
CC(C)=CCOc1cc(Nc2ccccn2)ccc1Cl	15 µM		
CSc1ccnc(Nc2ccc(Cl)c(OCC=C(C)C)c2)n1	2.8 µM		
Cc1cc(C#N)cc(C)c1Oc1nc(Nc2ccc(C#N)cc2)nc(N)c1Br [ETRAVIRINE]	> 1 µM		< 0.002 µM
Cc1ccnc2c1NC(=O)c1cccnc1N2C1CC1 [NEVIRAPINE]	> 10 µM		
Cc1cn([C@H]2C=C[C@@H](CO)O2)c(=O)[nH]c1=O [STAVUDINE]	> 100 µM		3 µM
CC(C)=CCOc1cc(NC(=S)c2ccoc2C)ccc1Cl [UC 781]	> 100 µM		0.002 µM
